Values of other authors, collected in US20240108740A1, “THERAPEUTIC COMPOSITIONS INCLUDING SPN10 AND USES THEREOF” (Stealth BioTherapeutics Inc., priority 2022, published 2024).
Non-standard residues stand in square brackets, D forms with d.

Columns and labels:
[1] = test system: several mammalian cell types; conditions: energy-independent manner; Zhao et al. 2003; cited from earlier work
[2] = test system: cell stress recovery; conditions: Mitchell et al., bioRxiv; cited from earlier work

Substance	penetration of the plasma membrane [1]	performance compared with SS-31 (cell culture assays, structure-activity analysis) [2]
H-2′,6′-Dmt-D-Arg-Phe-Lys-NH2	readily penetrates the plasma membrane	–
H-F[dR]FK-NH2 [SS-20, reference compound]	–	consistently outperformed SS-31
H-D-Arg-Tyr-Lys-Phe-NH2 (H-[dR]YKF-NH2; SMILES N=C(N)NCCC[C@@H](N)C(=O)N[C@@H](Cc1ccc(O)cc1)C(=O)N[C@@H](CCCCN)C(=O)N[C@@H](Cc1ccccc1)C(N)=O) [SPN4, reference compound]	–	consistently outperformed SS-31
